PubChem BioAssay AID330 (DTP/NCI, 2004)
Toxic doses and inconclusive results are not listed.

System: P388 leukemia ip, CD2F1 mice, survival T/C
Assay: NCI In Vivo Anticancer Drug Screen. Data for tumor model P388 Leukemia (intraperitoneal) in CD2F1 (CDF1) mice
Conditions: endpoint: median survival time, higher = longer survival
Method in brief: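 Mice carrying the transplanted tumor received test compound or vehicle. Survival was recorded in each group, and the value is the treated-group measurement divided by that of the vehicle-treated control group.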

[1] = dose: 60.0 mg/kg/injection, schedule: Q01DX005 (ip), vehicle: saline with Tween-80
[2] = dose: 120.0 mg/kg/injection, schedule: Q01DX005 (ip), vehicle: saline with Tween-80
[3] = dose: 240.0 mg/kg/injection, schedule: Q01DX005 (ip), vehicle: saline with Tween-80
[4] = dose: 100.0 mg/kg/injection, schedule: Q01DX001 (ip), vehicle: saline with Tween-80
[5] = dose: 200.0 mg/kg/injection, schedule: Q01DX001 (ip), vehicle: saline with Tween-80
[6] = dose: 50.0 mg/kg/injection, schedule: Q01DX009 (ip), vehicle: Klucel (hydroxypropylcellulose) (HPC)
[7] = dose: 100.0 mg/kg/injection, schedule: Q01DX009 (ip), vehicle: Klucel (hydroxypropylcellulose) (HPC)
[8] = dose: 200.0 mg/kg/injection, schedule: Q01DX009 (ip), vehicle: Klucel (hydroxypropylcellulose) (HPC)
[9] = dose: 50.0 mg/kg/injection, schedule: Q01DX009 (ip), vehicle: saline with Tween-80
[10] = dose: 100.0 mg/kg/injection, schedule: Q01DX009 (ip), vehicle: saline with Tween-80
[11] = dose: 200.0 mg/kg/injection, schedule: Q01DX009 (ip), vehicle: saline with Tween-80
[12] = dose: 100.0 mg/kg/injection, schedule: Q04DX002 (ip), vehicle: saline with Tween-80
[13] = dose: 12.5 mg/kg/injection, schedule: Q01DX009 (ip), vehicle: saline
[14] = dose: 25.0 mg/kg/injection, schedule: Q01DX009 (ip), vehicle: saline
[15] = dose: 50.0 mg/kg/injection, schedule: Q01DX009 (ip), vehicle: saline
[16] = dose: 100.0 mg/kg/injection, schedule: Q01DX009 (ip), vehicle: saline
[17] = dose: 200.0 mg/kg/injection, schedule: Q01DX009 (ip), vehicle: saline
[18] = dose: 12.5 mg/kg/injection, schedule: Q01DX009 (ip), vehicle: saline with Tween-80
[19] = dose: 25.0 mg/kg/injection, schedule: Q01DX009 (ip), vehicle: saline with Tween-80
[20] = dose: 50.0 mg/kg/injection, schedule: Q01DX005 (ip), vehicle: saline with Tween-80
[21] = dose: 100.0 mg/kg/injection, schedule: Q01DX005 (ip), vehicle: saline with Tween-80
[22] = dose: 200.0 mg/kg/injection, schedule: Q01DX005 (ip), vehicle: saline with Tween-80

In the case of `Cc1cc2c(c(C#N)c1C)NC(=O)CN=C2c1ccccc1F`, the T/C [1] was 96 % of control, the T/C [2] was 98 % of control and the T/C [3] was 95 % of control.

`c1cc[n+](Cc2ccc3ccccc3c2)c(C2OCCO2)c1` was tested, and the T/C (dose: 5.0 mg/kg/injection, schedule: Q01DX009 (ip), vehicle: saline) was 100 % of control, the T/C (dose: 10.0 mg/kg/injection, schedule: Q01DX009 (ip), vehicle: saline) was 100 % of control and the T/C (dose: 20.0 mg/kg/injection, schedule: Q01DX009 (ip), vehicle: saline) was 104 % of control.

In the case of `CN1C=C(c2ccccc2)C=C(c2ccccc2)C1S(=O)(=O)O` (stereo not given), the T/C (dose: 12.5 mg/kg/injection, schedule: Q01DX005 (ip), vehicle: saline + Tween-80 + alcohol) was 99 % of control and the T/C (dose: 25.0 mg/kg/injection, schedule: Q01DX005 (ip), vehicle: saline + Tween-80 + alcohol) was 96 % of control.

`O=c1nc2scc(-c3ccccc3)n2c2sc3c(c12)CCCC3` was tested, and the T/C [4] was 106 % of control, the T/C [5] was 95 % of control and the T/C (dose: 400.0 mg/kg/injection, schedule: Q01DX001 (ip), vehicle: saline with Tween-80) was 93 % of control.

With `Cc1cc(OCCS(=O)(=O)C(CCOS(C)(=O)=O)COS(C)(=O)=O)cc(C)c1Cl` (stereo not given) the T/C [6] was 105 % of control, the T/C [7] was 102 % of control and the T/C [8] was 101 % of control.

With `CC(=O)N(C(C)=O)c1cnc2c(nc3cc(C)ccn32)c1C` the T/C [4] was 92 % of control and the T/C [5] was 98 % of control.

For `CC12CCC(C(=O)C1=O)C2(C)C` (stereo not given), the T/C [9] was 102 % of control, the T/C [10] was 93 % of control and the T/C [11] was 95 % of control. For the same molecule, the T/C (dose: 400.0 mg/kg/injection, schedule: Q01DX009 (ip), vehicle: saline with Tween-80) was 97 % of control.

`COC(=O)/C(=C\SC(C)=O)NC(C)=O` was tested, and the T/C [12] was 107 % of control, the T/C (dose: 200.0 mg/kg/injection, schedule: Q04DX002 (ip), vehicle: saline with Tween-80) was 105 % of control and the T/C (dose: 400.0 mg/kg/injection, schedule: Q04DX002 (ip), vehicle: saline with Tween-80) was 117 % of control.

With `CC(C#N)(Cc1ccccc1)Nc1ccccc1` (stereo not given) the T/C [9] was 95 % of control, the T/C [10] was 90 % of control and the T/C [11] was 95 % of control.

For `S=P1(c2ccccc2)C=C(N2CCCC2)CC1` (stereo not given), the T/C [13] was 109 % of control, the T/C [14] was 110 % of control and the T/C [15] was 112 % of control. The T/C [16] was 104 % of control and the T/C [17] was 96 % of control.

In the case of `Nc1c(/C=C/c2cc3ccc(C4=NCCN4)cc3[nH]2)[nH]c2cc(C3=NCCN3)ccc12`, the T/C (dose: 12.5 mg/kg/injection, schedule: Q01DX005 (ip), vehicle: Klucel (hydroxypropylcellulose) (HPC)) was 111 % of control, the T/C (dose: 25.0 mg/kg/injection, schedule: Q01DX005 (ip), vehicle: Klucel (hydroxypropylcellulose) (HPC)) was 120 % of control and the T/C (dose: 50.0 mg/kg/injection, schedule: Q01DX005 (ip), vehicle: Klucel (hydroxypropylcellulose) (HPC)) was 189 % of control. For the same molecule, the T/C (dose: 100.0 mg/kg/injection, schedule: Q01DX005 (ip), vehicle: Klucel (hydroxypropylcellulose) (HPC)) was 223 % of control.

With `O=S(=O)(O)SCCN1CCOCC1` the T/C [16] was 90 % of control, the T/C [17] was 115 % of control and the T/C (dose: 400.0 mg/kg/injection, schedule: Q01DX009 (ip), vehicle: saline) was 110 % of control.

In the case of `O=C1Nc2ccccc2/C1=C\c1ccccc1O`, the T/C (dose: 25.0 mg/kg/injection, schedule: Q01DX009 (ip), vehicle: Klucel (hydroxypropylcellulose) (HPC)) was 98 % of control, the T/C [6] was 96 % of control and the T/C [7] was 95 % of control. For the same molecule, the T/C [8] was 98 % of control and the T/C (dose: 400.0 mg/kg/injection, schedule: Q01DX009 (ip), vehicle: Klucel (hydroxypropylcellulose) (HPC)) was 88 % of control.

With `CN=C(N)N/N=C(\c1ccccc1)c1ccc(I)cc1` the T/C (dose: 25.0 mg/kg/injection, schedule: Q04DX002 (ip), vehicle: saline with Tween-80) was 104 % of control, the T/C (dose: 50.0 mg/kg/injection, schedule: Q04DX002 (ip), vehicle: saline with Tween-80) was 107 % of control and the T/C [12] was 107 % of control.

In the case of `Fc1ccc(NC(=S)SCc2ccc3c(c2)OCO3)cc1F`, the T/C [6] was 119 % of control, the T/C [7] was 102 % of control and the T/C [8] was 86 % of control.

With `Cc1cc2[nH]c3c(C#N)c(OC(=O)N(C)C)c(-c4ccccc4)c(=O)n3c2cc1C` the T/C [1] was 97 % of control, the T/C [2] was 90 % of control and the T/C [3] was 92 % of control.

`C/C=C/C(C#N)OC(C)=O` (stereo not given) was tested, and the T/C (dose: 3.75 mg/kg/injection, schedule: Q01DX005 (ip), vehicle: saline) was 100 % of control and the T/C (dose: 7.5 mg/kg/injection, schedule: Q01DX005 (ip), vehicle: saline) was 100 % of control.

With `COc1cc(OC)c(NC(=O)Oc2cc(C)c(I)cc2C)cc1Cl` the T/C (dose: 6.25 mg/kg/injection, schedule: Q01DX009 (ip), vehicle: saline) was 118 % of control, the T/C [13] was 96 % of control and the T/C [14] was 93 % of control. For the same molecule, the T/C (dose: 100.0 mg/kg/injection, schedule: Q01DX009 (ip), vehicle: saline + alcohol) was 98 % of control and the T/C (dose: 200.0 mg/kg/injection, schedule: Q01DX009 (ip), vehicle: saline + alcohol) was 95 % of control.

`NS(=O)(=O)c1ccc(N=Nc2c(O)n(-c3ccccc3)n(-c3ccccc3)c2=O)cc1` was tested, and the T/C (dose: 100.0 mg/kg/injection, schedule: Q04DX003 (ip), vehicle: Klucel (hydroxypropylcellulose) (HPC)) was 107 % of control, the T/C (dose: 200.0 mg/kg/injection, schedule: Q04DX003 (ip), vehicle: Klucel (hydroxypropylcellulose) (HPC)) was 102 % of control and the T/C (dose: 400.0 mg/kg/injection, schedule: Q04DX003 (ip), vehicle: Klucel (hydroxypropylcellulose) (HPC)) was 102 % of control.

In the case of `O=S1(=O)CN2C=CC=CC2=N1`, the T/C (dose: 6.25 mg/kg/injection, schedule: Q01DX009 (ip), vehicle: saline with Tween-80) was 106 % of control, the T/C [18] was 104 % of control and the T/C [19] was 105 % of control. For the same molecule, the T/C [9] was 105 % of control.

With `Cc1ccnn1C(C(=O)c1ccccc1)c1ccccc1` (stereo not given) the T/C [9] was 108 % of control, the T/C [10] was 105 % of control and the T/C [11] was 105 % of control.

For `COc1cc[n+](CCc2c[nH]c3ccccc23)cc1`, the T/C [18] was 109 % of control, the T/C [19] was 104 % of control and the T/C [9] was 113 % of control.

In the case of `CCCCCCCC#CC(=O)O`, the T/C [9] was 88 % of control, the T/C [10] was 89 % of control and the T/C [11] was 86 % of control.

In the case of `CC(=O)/C=C1\C(=O)OCC1(C)C`, the T/C (dose: 100.0 mg/kg/injection, schedule: Q04DX003 (ip), vehicle: saline) was 105 % of control, the T/C (dose: 200.0 mg/kg/injection, schedule: Q04DX003 (ip), vehicle: saline) was 108 % of control and the T/C (dose: 400.0 mg/kg/injection, schedule: Q04DX003 (ip), vehicle: saline) was 111 % of control.

For `O=C1c2c(O)cccc2C(Br)c2cccc(O)c21`, the T/C (dose: 60.0 mg/kg/injection, schedule: Q01DX005 (ip), vehicle: Klucel (hydroxypropylcellulose) (HPC)) was 107 % of control, the T/C (dose: 120.0 mg/kg/injection, schedule: Q01DX005 (ip), vehicle: Klucel (hydroxypropylcellulose) (HPC)) was 114 % of control and the T/C (dose: 240.0 mg/kg/injection, schedule: Q01DX005 (ip), vehicle: Klucel (hydroxypropylcellulose) (HPC)) was 98 % of control.

`Nc1nnc(-c2cc(=O)c3cc(Cl)ccc3o2)s1` was tested, and the T/C [20] was 97 % of control, the T/C [21] was 100 % of control and the T/C [22] was 93 % of control.

With `O=C(Nc1nn[nH]n1)c1nc(-c2ccccc2)cc(=O)[nH]1` the T/C [1] was 101 % of control, the T/C [2] was 101 % of control and the T/C [3] was 86 % of control.

With `O=C(OCOC(=O)N1CCOCC1)N1CCOCC1` the T/C [1] was 105 % of control and the T/C [3] was 94 % of control.

`CCCCCCCCCCCCCCCC[N+]1([O-])CCCCCC1` was tested, and the T/C [15] was 93 % of control.

In the case of `O=C(OCc1ccccc1)N1C[C@@H](Br)[C@H](Br)[C@H]1Cc1ccccc1`, the T/C (dose: 100.0 mg/kg/injection, schedule: Q01DX001 (ip), vehicle: distilled water + alcohol) was 95 % of control and the T/C (dose: 200.0 mg/kg/injection, schedule: Q01DX001 (ip), vehicle: distilled water + alcohol) was 100 % of control.

In the case of `CC(=O)C1=C(C)C2CC3(C)CC(C2(C)C1)C3(C)C` (stereo not given), the T/C [20] was 100 % of control, the T/C [21] was 102 % of control and the T/C [22] was 100 % of control.
